Laboratory results reported in ChEMBL document CHEMBL2073821, “Immunohistochemical and functional characterization of pH-dependent intestinal absorption of weak organic acids by the monocarboxylic acid transporter MCT1” (J Pharm Pharmacol, 1999).
Each block holds one molecule with its values, some of them ahead of it. Square brackets hold non-standard residues; d marks the D form. Peptide text beside a SMILES is read from it. Sar = CNCC(=O)O

Experiments:
Format in all cases: functional, cell-based
Settings in all cases: MDA-MB-231
[1] = biological target: T1, Monocarboxylate transporter 1 (Rattus norvegicus) (UniProt P53987); test: TP_TRANSPORTER: uptake of Propionic acid at a concentration of 7uM in MCT1-expressing MDA-MB231 cells
T1 sequence (whole entry): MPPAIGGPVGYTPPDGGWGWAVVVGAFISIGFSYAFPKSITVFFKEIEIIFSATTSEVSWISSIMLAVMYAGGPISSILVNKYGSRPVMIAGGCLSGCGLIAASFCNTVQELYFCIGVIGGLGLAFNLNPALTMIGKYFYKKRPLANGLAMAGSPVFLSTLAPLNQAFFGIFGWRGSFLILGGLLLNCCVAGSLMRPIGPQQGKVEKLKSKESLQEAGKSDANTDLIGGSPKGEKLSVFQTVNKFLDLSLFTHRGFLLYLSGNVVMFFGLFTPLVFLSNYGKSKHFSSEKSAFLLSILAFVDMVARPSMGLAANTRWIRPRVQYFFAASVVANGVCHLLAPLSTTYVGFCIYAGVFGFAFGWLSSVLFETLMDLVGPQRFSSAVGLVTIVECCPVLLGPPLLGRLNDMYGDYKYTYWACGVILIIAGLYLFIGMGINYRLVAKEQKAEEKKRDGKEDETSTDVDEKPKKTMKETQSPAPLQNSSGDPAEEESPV

[2] = biological target: T1, Monocarboxylate transporter 1 (Rattus norvegicus); test: TP_TRANSPORTER: uptake of D-Lactic Acid at a concentration of 3uM in MCT1-expressing MDA-MB231 cells
[3] = biological target: T1, Monocarboxylate transporter 1 (Rattus norvegicus); test: TP_TRANSPORTER: uptake of P-Aminohippuric acid at a concentration of 9uM in MCT1-expressing MDA-MB231 cells
[4] = biological target: T1, Monocarboxylate transporter 1 (Rattus norvegicus); test: TP_TRANSPORTER: uptake of Glutamic acid at a concentration of 0.01uM in MCT1-expressing MDA-MB231 cells
[5] = biological target: T1, Monocarboxylate transporter 1 (Rattus norvegicus); test: TP_TRANSPORTER: uptake of Glycylsarcosine at a concentration of 17uM in MCT1-expressing MDA-MB231 cells
[6] = biological target: T1, Monocarboxylate transporter 1 (Rattus norvegicus); test: TP_TRANSPORTER: uptake of Mevalonic acid at a concentration of 67uM in MCT1-expressing MDA-MB231 cells
[7] = biological target: T1, Monocarboxylate transporter 1 (Rattus norvegicus); test: TP_TRANSPORTER: uptake of Faropenem at a concentration of 76uM in MCT1-expressing MDA-MB231 cells
[8] = biological target: T1, Monocarboxylate transporter 1 (Rattus norvegicus); test: TP_TRANSPORTER: uptake of Methotrexate at a concentration of 0.03uM in MCT1-expressing MDA-MB231 cells
[9] = biological target: T1, Monocarboxylate transporter 1 (Rattus norvegicus); test: TP_TRANSPORTER: uptake of Foscarnet at a concentration of 3uM in MCT1-expressing MDA-MB231 cells
[10] = biological target: T1, Monocarboxylate transporter 1 (Rattus norvegicus); test: TP_TRANSPORTER: uptake of Valproic acid at a concentration of 19uM in MCT1-expressing MDA-MB231 cells
[11] = biological target: T1, Monocarboxylate transporter 1 (Rattus norvegicus); test: TP_TRANSPORTER: uptake of Butyric acid at a concentration of 137uM in MCT1-expressing MDA-MB231 cells

Structure (SMILES): Nc1ccc(C(=O)NCC(=O)O)cc1
Activity [3]: is not a substrate [-]

Structure (SMILES): C[C@@H](O)[C@H]1C(=O)N2C(C(=O)O)=C([C@H]3CCCO3)S[C@H]12
Activity [7]: is not a substrate [-]

Structure (SMILES): CN(Cc1cnc2nc(N)nc(N)c2n1)c1ccc(C(=O)N[C@@H](CCC(=O)O)C(=O)O)cc1
Activity [8]: is not a substrate [-]

Structure (SMILES): O=C(O)P(=O)(O)O
Activity [9]: substrate [+]

Structure (SMILES): CCCC(CCC)C(=O)O
Activity [10]: is not a substrate [-]

Further lines, results first:

Activity [1]: substrate [+]
Structure (SMILES): CCC(=O)O

Activity [2]: substrate [+]
Structure (SMILES): C[C@@H](O)C(=O)O

Activity [4]: is not a substrate [-]
Structure (SMILES): N[C@@H](CCC(=O)O)C(=O)O

Activity [5]: is not a substrate [-]
Structure (SMILES): CN(CC(=O)O)C(=O)CN (H-Gly-[Sar]-OH)

Activity [6]: is not a substrate [-]
Structure (SMILES): C[C@@](O)(CCO)CC(=O)O

Activity [11]: substrate [+]
Structure (SMILES): CCCC(=O)O
